# Experimental data taken from paper PMC6921030, “Biochemical Characterization of a Novel α/β-Hydrolase/FSH from the White Shrimp Litopenaeus vannamei” (Biomolecules, 2019).
# Biological target: T1, LvFSH (LvFHS) (Penaeus vannamei, UniProt A0A3R7MXL5)
# T1 construct: gene C7M84_009540; synthetic codon-optimised gene of LvFSH coding region, N-terminal 10-His tag (cutting not mentioned), pJexpress414, E. coli BL21DE3-SI; about 27 kDa on SDS-PAGE, about 58 kDa by gel filtration (probable dimer); catalytic triad Ser111/Asp169/His196 proposed; C-terminal motif KMRELC 214-219
# Experiment: spectrophotometric p-nitrophenol release at […] nm, non-linear Michaelis-Menten fit
# Format: biochemical
# Conditions: 50 mM Tris-HCl pH 8.0, 37 °C, 0.2% (v/v) Triton X-100, 50 mM NaCl; substrate 0.05-2 mM in ethanol
# T1 sequence (A0A3R7MXL5 entry or part of it): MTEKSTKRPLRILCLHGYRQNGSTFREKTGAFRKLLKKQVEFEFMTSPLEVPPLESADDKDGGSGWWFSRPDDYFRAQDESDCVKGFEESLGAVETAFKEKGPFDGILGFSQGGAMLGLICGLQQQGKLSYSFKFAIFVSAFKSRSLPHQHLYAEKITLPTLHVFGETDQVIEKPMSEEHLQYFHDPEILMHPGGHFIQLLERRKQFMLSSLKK
compound,measurement,value
CC(=O)Oc1ccc([N+](=O)[O-])cc1 [p-nitrophenyl acetate],Km,1000 ± 40 µM
